Earlier results in US8052982B2, “Bioimplant formulation comprising lecithin and stearin” (Peptech Animal Health PTY Limited, priority 1998, dated 2011).

In order of rising “log octanol/water partition (log P)” value:
1. C[C@H](CS)C(=O)N1CCC[C@H]1C(=O)O [captopril]  −1.86
2. CCC[C@H](N[C@@H](C)C(=O)N1[C@H](C(=O)O)C[C@@H]2CCCC[C@@H]21)C(=O)O [perindoprilate]  −0.36
3. Cn1c(=O)c2c(ncn2CCO)n(C)c1=O [etofylline]  0.35
4. C[C@H](N[C@@H](CCc1ccccc1)C(=O)O)C(=O)N1Cc2ccccc2C[C@H]1C(=O)O [quinaprilate]  0.69
5. C[C@H](N[C@@H](CCc1ccccc1)C(=O)O)C(=O)N1[C@H](C(=O)O)C[C@H]2CCCC[C@@H]21 [trandolaprilate]  1.02
6. O=C(O)c1ccccc1Nc1cccc(C(F)(F)F)c1 [flufenamic acid]  1.14
7. C[C@@H](O)[C@@H]1NC(=O)[C@H](CCCCN)NC(=O)[C@@H](Cc2c[nH]c3ccccc23)NC(=O)[C@H](Cc2ccccc2)NC(=O)[C@@H](NC(=O)[C@H](N)Cc2ccccc2)CSSC[C@@H](C(=O)N[C@H](CO)[C@@H](C)O)NC1=O [octreotide]  1.40
8. CC(CN1c2ccccc2Sc2ccccc21)N(C)C (centres unmarked) [promethazine]  4.75
